{"source": "patent US6296859A", "about": "“Synergistic composition comprising a compound of lipoamino acid structure and a water lily extract” (Societe d'Exploitation de Produits pour les Industries …, priority 1998, dated 2001)", "key": {"[1]": {"biological_target": "T1, human leukocytic elastase (HLE) (Homo sapiens, UniProt P08246)", "T1 sequence (P08246 30-267)": "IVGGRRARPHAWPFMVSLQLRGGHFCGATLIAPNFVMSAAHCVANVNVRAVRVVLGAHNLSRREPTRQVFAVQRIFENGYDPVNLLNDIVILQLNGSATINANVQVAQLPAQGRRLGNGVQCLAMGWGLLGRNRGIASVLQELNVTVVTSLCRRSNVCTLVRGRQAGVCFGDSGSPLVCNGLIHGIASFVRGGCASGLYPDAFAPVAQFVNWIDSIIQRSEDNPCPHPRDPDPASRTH", "test": "anti-elastase test: spectrophotometric hydrolysis of N-methoxysuccinyl-alanine-proline-valine-para-nitroanilide at 410 nm", "type": "biochemical", "conditions": "test concentration 0.001% palmitoylproline alone; 25° C.", "protocol": "The reaction is carried out in a spectrophotometer, thermostatically maintained at 25° C., fitted with a sample changer. All the kinetics are carried out at least three times, the average and the standard deviation then being calculated for the three values obtained. […] A correlation thus exists between the percentage of inhibition of the formation of the coloured product by the test compound and the percentage of inhibition of human leukocytic elastase. The percentage of inhibition thus calculated is also representative of the calmant activity of the test compound."}, "[2]": {"test": "anti-free-radical test: xanthine oxidase/xanthine, rate of reduction of cytochrome C at 550 nm", "type": "biochemical", "conditions": "test concentration 0.0062% palmitoylproline alone; 25° C.", "description": "The determination of the anti-free-radical effect is based on the inhibition or the decrease in the rate of reduction of cytochrome C, by adding a test molecule to the reaction medium. The superoxide anion is generated by the action of xanthine oxidase on xanthine. In the absence of a molecule capable of capturing it, it results in the reduction of cytochrome C. The formation of reduced cytochrome C is monitored by a spectrophotometer, at 550 nm in the presence (Test) and in the absence (Control) of anti-free-radical molecules.\nThe reaction takes place in a spectrophotometer thermostatically adjusted to 25° C. and fitted with a sample changer. All of the kinetics are carried out at least three times; the average and the standard deviation are calculated for the three values obtained. A percentage of inhibition of the rate of formation of the coloured product (corresponding to the amount of free superoxide anion) will thus be calculated for each active agent tested. […] The percentage of inhibition of the formation of the coloured product by the active agent will thus correspond to its percentage of inhibition of the superoxide anion."}}, "data": [{"smiles": "CCCCCCCCCCCCCCCC(=O)N1CCC[C@H]1C(=O)O", "note": "[Palmitoylproline, N-palmitoylproline]", "values": [{"measurement": "% of anti-elastase inhibition", "setting": "[1]", "result": 22, "unit": "%"}, {"measurement": "% of anti-free-radical inhibition", "setting": "[2]", "result": 38, "unit": "%"}]}]}
